We go through 13 molecules from patent US20260078120A1, “SUBSTITUTED PYRIDOPYRIMIDINONES” (MIRATI THERAPEUTICS, INC., priority 2022, published 2026).

Assay type in all cases: cell-based
The subject of assay [1] is SKBR3 (PI3Kα wild type) cells. Nature of the assay: CellTiter-Glo 2.0 luminescent cell viability assay, 72 hours, SKBR3 cells. Particulars: Homo sapiens, SK-BR-3, 72 h, SKBR3 (PI3Kα wild type) cells, CellTiter-Glo, approximately 72 hours; read-out: SKBR3 (WT) Viability IC50. Summed up:
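Viability measured via CTG luminescence following roughly 72 hours of compound exposure at 37° C. Dosing used a 10 um starting concentration diluted 1:4 over 10 points; percent-of-vehicle data fitted with a variable-slope four-parameter model for IC50.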
Background: ATP-based viability assays read luminescence as a measure of living cells.

Assay [2] relates to SKBR3 (PI3Kα wild type) cells. Kind of assay: Inhibition of pAKT formation, alphaLISA SureFire Ultra AKT 1/2/3 (pS473), SKBR3 cells. The settings on record: Homo sapiens, SK-BR-3; Inhibition of pAKT in SKBR3 (PI3Kα wild type) cells; read-out: SKBR3 (WT) pAKT IC50 (nM) (H1047R mutant) IC50. The essentials:
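Cells seeded in HBSS (SKBR3 12,000/well, MKN1 24,000/well) and dosed immediately, 10-point 1:4 series from […], for about 1 h or 24 h at 37 °C. pAKT S473 by alphaLISA after lysis; signal normalised to alpelisib and DMSO controls, IC50 by four-parameter fit.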
Background: Bead proximity is the source of the signal in Alpha formats.

Assay [3] concerns MKN1 (PI3Kα E545K mutant) cells. Nature of the assay: Inhibition of pAKT formation, alphaLISA SureFire Ultra AKT 1/2/3 (pS473), MKN1 cells. The settings on record: Homo sapiens, MKN-1; MKN1 (PI3Kα E545K mutant) cells; inhibition of pAKT (pS473) formation; approximately one hour or 24 hours treatment; read-out: MKN1 (E545K) pAKT IC50. As for the experimental part:
The ability of a compound of Formula (I) to inhibit the formation of pAKT was measured using alphaLISA Surefire Ultra AKT 1/2/3 (pS473) Assay Kit (#ALSU-PAKT-B50K) was obtained from Perkin Elmer (Waltham, MA).
To prepare assay plates for pAKT alphaLISA assays, cells were trypsinized, resuspended in fresh media, and viable cells were counted utilizing trypan blue exclusion. Prior to seeding, cells were washed with PBS and resuspended in HBSS (Gibco, #14025092). T47D (12,000/w), SKBR3(12,000/w), or MKN1(24,000/w) cells were seeded at 12 μl per well in a solid white flat bottom 384 cell culture plate (Perkin Elmer #6007680).
Immediately after seeding, cells were dosed using an Echo Liquid Handler (Beckman Coulter) with compounds at a […] starting concentration and serially diluted (1:4) for a total of 10 concentrations. […] Cells were incubated with the compounds (solubilized in DMSO) for approximately one hour or 24 hours at 37° C. After one hour (or 24 hours) of treatment, cells were lysed with 3 μl of the 5× lysis buffer (provided and incubated at room temperature for 15 min on a microtiter plate shaker). Once cells were sufficiently lysed, 7.5 μl of the acceptor bead mix (made using the manufacturers recommended dilutions) was added to each well and left on the microtiter plate shaker for 1 min prior to incubating plates at room temperature for one hour, in the absence of light. After one hour of incubation with the acceptor bead mix, 7.5 μl of the donor bead mix (made using the manufacturers recommended dilutions) was added to each well and left on the microtiter plate shaker for 1 min prior to incubating plates at room temperature overnight in the absence of light. Plates were then imaged the following day using a CLARIOstar microplate reader (BMG Labtech, Germany).
Percent of control values were calculated by subtracting the average signal from the positive control (alpelisib) treated wells from all treated wells (including DMSO control wells) and then divided by the average signal from the vehicle DMSO treated control wells. Percent of vehicle control values were plotted as log (inhibitor) vs. response-Variable slope (four parameters) for curve fitting and IC50 values were determined using XLfit.
Key: N.D. =not determined

In assay [4] the test system is T47D (PI3Kα H1047R mutant) cells. Kind of assay: Inhibition of pAKT formation, alphaLISA SureFire Ultra AKT 1/2/3 (pS473), T47D cells. The settings on record: Homo sapiens, T47D, T47D (PI3Kα H1047R mutant) cells; inhibition of pAKT (pS473) formation; approximately one hour or 24 hours treatment; read-out: T47D pAKT (H1047R mutant) IC50. The essentials: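 AKT Ser473 phosphorylation was quantified by alphaLISA SureFire Ultra after roughly 1 h or 24 h compound exposure at 37 °C. Cells were T47D (12,000/well in HBSS), treated with a 10-point 1:4 series starting at 10.4 μM. Percent of control used alpelisib background and DMSO reference, and IC50 came from four-parameter logistic fitting.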

In assay [5] the test system is MKN1 (PI3Kα E545K mutant) cells. Nature of the assay: CellTiter-Glo 2.0 luminescent cell viability assay, 72 hours, MKN1 cells. Particulars: Homo sapiens, MKN-1; MKN1 (PI3Kα E545K mutant) cells, CellTiter-Glo, approximately 72 hours; read-out: MKN1 (E545K) Viability IC50. As for the experimental part:
This Example illustrates that exemplary compounds of the present invention decrease the viability of cells.
The ability of a compound of Formula (I) to decrease the viability of cells was measured using CellTiter-Glo 2.0 (CTG) Luminescent Cell Viability Assay (#G9241) obtained from Promega (Madison, WI).
To prepare assay plates for viability assays, cells were trypsinized, resuspended in fresh media, and viable cells were counted utilizing trypan blue exclusion. T47D, SKBR3, or MKN1 cells were seeded at 1000 cells in 30 μl per well in a solid white flat bottom 384 cell culture plate (Perkin Elmer #6007680) and incubated at 37° C. overnight.
Assay day 1, cells were dosed using an Echo Liquid Handler (Beckman Coulter) with compounds at a 10 um starting concentration and serially diluted (1:4) for a total of 10 concentrations. Cells were incubated for approximately 72 hours with the compounds (solubilized in DMSO) at 37° C. After 72 hours of treatment, cell plates were equilibrated to room temperature before adding 15 μl of CTG to each well, plates were then covered in aluminum foil to protect from light, incubated at room temperature for 30 minutes on a microtiter plate shaker, and luminescence readings were collected using a CLARIOstar microplate reader (BMG Labtech, Germany). Percent of vehicle control values were plotted as log (inhibitor) vs. response-Variable slope (four parameters) for curve fitting and IC50 values were determined using XLfit.

Assay [6] deals with T47D (PI3Kα H1047R mutant) cells. Kind of assay: CellTiter-Glo 2.0 luminescent cell viability assay, 72 hours, T47D cells. Particulars: Homo sapiens, T47D, 72 h, T47D (PI3Kα H1047R mutant) cells, CellTiter-Glo, approximately 72 hours; read-out: T47D (H1047R mutant) Viability IC50. Summed up: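 Viability was measured by CellTiter-Glo 2.0 luminescence after approximately 72 h of compound exposure at 37° C. Plating was 1000 cells per well the day before dosing, with ten 1:4 dilutions from a 10 µM top concentration. Values as percent of vehicle were fitted by variable-slope log(inhibitor) regression to give IC50.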

Usually IC50 stands for the concentration at which inhibition is half-maximal.

As for `Cc1cc(C(C)Nc2ccccc2C(=O)O)c2nc(OCc3ccccc3)cc(=O)n2c1` (stereo not drawn) [Example 9-3, 2-((1-(2-(benzyloxy)-7-methyl-4-oxo-4H-pyrido[1,2-a]pyrimidin-9-yl)ethyl)amino)benzoic acid], the IC50 in assay [1] was 4.77 µM; in assay [2], more than 10000 nM; in assay [3], more than 10 µM; in assay [4], 0.129 µM; in assay [5], 3.78 µM; in assay [6] it was 4.45 µM.

Regarding `Cc1cc(C(C)Nc2ccccc2)c2nc(N3CCCCC3)cc(=O)n2c1` (stereo not drawn) [Example 1, 7-methyl-9-(1-(phenylamino)ethyl)-2-(piperidin-1-yl)-4H-pyrido[1,2-a]pyrimidin-4-one], the IC50 in assay [1] is more than 10 µM; in assay [2] it was more than 10000 nM; in assay [3], more than 10 µM; in assay [4], more than 10 µM; in assay [5] it was more than 10 µM; in assay [6], more than 10 µM.

With `Cc1cc([C@@H](C)Nc2ccccc2C(=O)O)c2nc(N3CCC(C)(C)CC3)cc(=O)n2c1` (single isomer, unassigned) [Example 5-5], the 50% inhibitory concentration (IC50) is more than 10 µM in assay [1]; more than 10000 nM in assay [2]; more than 10 µM in assay [3]; 1.21 µM in assay [4]; more than 10 µM in assay [5]; 8.02 µM in assay [6].

With `CC(Nc1ccccc1C(=O)O)c1cccn2c(=O)cc(N3CCC(C)(C)CC3)nc12` (stereo not drawn) [Example 9-2, 2-((1-(2-(4,4-dimethylpiperidin-1-yl)-4-oxo-4H-pyrido[1,2-a]pyrimidin-9-yl)ethyl)amino) benzoic acid], the 50% inhibitory concentration (IC50) is more than 10 µM in assay [1]; more than 10000 nM in assay [2]; more than 10 µM in assay [3]; 0.0339 µM in assay [4]; more than 10 µM in assay [5]; more than 10 µM in assay [6].

Consider `Cc1c(N2CCCCC2)nc2c(C(C)Nc3ccccc3C(=O)O)cccn2c1=O` (stereo not drawn) [Example 5-11, 2-((1-(3-methyl-4-oxo-2-(piperidin-1-yl)-4H-pyrido[1,2-a]pyrimidin-9-yl)ethyl)amino)benzoic acid], for which the IC50 in assay [1] was more than 10 µM; in assay [2], more than 10000 nM; in assay [3], 3.06 µM; in assay [4], 0.0109 µM; in assay [5], more than 10 µM; in assay [6], 0.731 µM.

Regarding `Cc1cc(C(C)NC(=O)CCl)c2nc(N3CCCCC3)cc(=O)n2c1` (stereo not drawn) [Example 4-3, 2-chloro-N-(1-(7-methyl-4-oxo-2-(piperidin-1-yl)-4H-pyrido[1,2-a]pyrimidin-9-yl)ethyl)acetamide], the IC50 is 4.84 µM in assay [1]; more than 10000 nM in assay [2]; more than 10 µM in assay [3]; more than 10 µM in assay [4]; 6.14 µM in assay [5]; more than 10 µM in assay [6].

As to `CCc1cc(C(C)Nc2ccccc2C(=O)O)c2nc(N3CCCCC3)cc(=O)n2c1` (stereo not drawn) [Example 5-8, 2-((1-(7-ethyl-4-oxo-2-(piperidin-1-yl)-4H-pyrido[1,2-a]pyrimidin-9-yl)ethyl)amino)benzoic acid], the concentration for half-maximal inhibition (IC50) in assay [1] was more than 10 µM; in assay [2], more than 10000 nM; in assay [3] it was more than 10 µM; in assay [4], 0.017 µM; in assay [5], more than 10 µM; in assay [6] it was 3.79 µM.

Regarding `COc1ccc(C(=O)O)c(NC(C)c2cc(C)cn3c(=O)cc(N4CCCCC4)nc23)c1` (stereo not drawn) [Example 3-7, 4-methoxy-2-((1-(7-methyl-4-oxo-2-(piperidin-1-yl)-4H-pyrido[1,2-a]pyrimidin-9-yl)ethyl)amino)benzoic acid], the IC50 in assay [1] was more than 10 µM; in assay [2], 8030 nM; in assay [3], more than 10 µM; in assay [4], more than 10 µM; in assay [5] it was more than 10 µM; in assay [6], more than 10 µM.

`Cc1c(N2CCC(C)(C)CC2)nc2c(C(C)Nc3ccccc3C(=O)O)cccn2c1=O` (stereo not drawn) [Example 5-10, 2-((1-(2-(4,4-dimethylpiperidin-1-yl)-3-methyl-4-oxo-4H-pyrido[1,2-a]pyrimidin-9-yl)ethyl)amino)benzoic acid]: the half-inhibitory concentration (IC50) in assay [1] is more than 10 µM; in assay [2], 6120 nM; in assay [3], more than 10 µM; in assay [4] it was 0.0404 µM; in assay [5] it was more than 10 µM; in assay [6], 1.8 µM.

`Cc1cc([C@@H](C)Nc2ccccc2C(=O)O)c2nc(N3CCCCC3)cc(=O)n2c1` (single isomer, unassigned) [Example 3-1]: the IC50 was more than 10 µM in assay [1]; more than 10000 nM in assay [2]; 2.5 µM in assay [3]; 0.0149 µM in assay [4]; more than 10 µM in assay [5]; 1.27 µM in assay [6].

Take `Cc1cc([C@H](C)Nc2ccccc2C(=O)O)c2nc(N3CCCCC3)cc(=O)n2c1` (single isomer, unassigned) [Example 3-2]: the IC50 in assay [1] is more than 10 µM; in assay [2], more than 10000 nM; in assay [3] it was 0.755 µM; in assay [4], 1.91 µM; in assay [5], more than 10 µM; in assay [6], more than 10 µM.

Take `Cc1cc(C(C)Nc2ccccc2C(O)C(F)(F)F)c2nc(N3CCCCC3)cc(=O)n2c1` (stereo not drawn) [Example 3-18, 7-methyl-2-(piperidin-1-yl)-9-(1-((2-(2,2,2-trifluoro-1-hydroxyethyl)phenyl)amino)ethyl)-4H-pyrido[1,2-a]pyrimidin-4-one]: the IC50 is more than 10 µM in assay [1]; more than 10000 nM in assay [2]; more than 10 µM in assay [3]; 1.39 µM in assay [4]; more than 10 µM in assay [5]; 4.2 µM in assay [6].

`Cc1cc([C@@H](C)Nc2ccccc2C(=O)O)c2nc(N3Cc4ccccc4C3)c(C)c(=O)n2c1` (single isomer, unassigned) [Example 5-9-2]: the IC50 in assay [1] is more than 10 µM; in assay [2], more than 10000 nM; in assay [3], more than 10 µM; in assay [4], 3.01 µM; in assay [5] it was more than 10 µM; in assay [6] it was 9.68 µM.
